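Five compound concentrations were applied to cells in 96-well plates for 48 hours; endpoints were derived by simple linear interpolation of the resulting dose-response curve. The concentration for full growth arrest is given as TGI.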
Tests used:
Experiment in all cases: inhibition of tumour cell growth, NCI panel, 48 h
786-0 renal = system: 786-0 renal
SNB-75 CNS = system: SNB-75 CNS
A549 NSCLC = system: A549 NSCLC
SF-295 CNS = system: SF-295 CNS
NCI-H23 lung = system: NCI-H23 lung
SK-MEL-5 melanoma = system: SK-MEL-5 melanoma
NCI-H460 lung = system: NCI-H460 lung
HS 578T breast = system: HS 578T breast
MALME-3M melanoma = system: MALME-3M melanoma
LOX IMVI melanoma = system: LOX IMVI melanoma
MDA-MB-435 = system: MDA-MB-435
HCT-15 colon = system: HCT-15 colon
COLO 205 colon = system: COLO 205 colon
UO-31 renal = system: UO-31 renal
SK-MEL-28 melanoma = system: SK-MEL-28 melanoma
SR leukemia = system: SR leukemia
CCRF-CEM leukemia = system: CCRF-CEM leukemia
UACC-257 melanoma = system: UACC-257 melanoma
HT29 colon = system: HT29 colon
SK-OV-3 ovarian = system: SK-OV-3 ovarian
IGROV1 ovarian = system: IGROV1 ovarian
DU-145 prostate = system: DU-145 prostate
SF-268 CNS = system: SF-268 CNS
OVCAR-8 ovarian = system: OVCAR-8 ovarian
OVCAR-4 ovarian = system: OVCAR-4 ovarian
SN12C renal = system: SN12C renal
EKVX NSCLC = system: EKVX NSCLC
MDA-N = system: MDA-N
HOP-62 NSCLC = system: HOP-62 NSCLC
MDA-MB-231 breast = system: MDA-MB-231 breast
HCT-116 colon = system: HCT-116 colon
OVCAR-3 ovarian = system: OVCAR-3 ovarian
HOP-92 NSCLC = system: HOP-92 NSCLC
NCI-H522 lung = system: NCI-H522 lung
A498 renal = system: A498 renal
NCI/ADR-RES ovarian = system: NCI/ADR-RES ovarian
SF-539 CNS = system: SF-539 CNS
MCF7 breast = system: MCF7 breast
M14 melanoma = system: M14 melanoma
SNB-19 CNS = system: SNB-19 CNS
CAKI-1 renal = system: CAKI-1 renal
HCC-2998 colon = system: HCC-2998 colon
KM12 colon = system: KM12 colon
HL-60(TB) leukemia = system: HL-60(TB) leukemia
TK-10 renal = system: TK-10 renal
T-47D breast = system: T-47D breast
PC-3 prostate = system: PC-3 prostate
OVCAR-5 ovarian = system: OVCAR-5 ovarian
UACC-62 melanoma = system: UACC-62 melanoma
SW-620 colon = system: SW-620 colon
RPMI-8226 leukemia = system: RPMI-8226 leukemia
BT-549 breast = system: BT-549 breast
K-562 leukemia = system: K-562 leukemia
ACHN renal = system: ACHN renal
U251 CNS = system: U251 CNS
MOLT-4 leukemia = system: MOLT-4 leukemia
SK-MEL-2 melanoma = system: SK-MEL-2 melanoma
NCI-H226 lung = system: NCI-H226 lung
RXF 393 renal = system: RXF 393 renal

For CN(CCCN(C)Cc1ccc(Cl)c(Cl)c1)CCN1CCCC1, the TGI (786-0 renal) was 31.6 µM, the TGI (SNB-75 CNS) was 81.7 µM and the TGI (A549 NSCLC) was over 80.9 µM. For the same molecule, the TGI (SF-295 CNS) was 53.9 µM, the TGI (NCI-H23 lung) was over 100 µM and the TGI (SK-MEL-5 melanoma) was 19.5 µM. The TGI (NCI-H460 lung) was 70.5 µM, the TGI (HS 578T breast) was over 53.6 µM and the TGI (MALME-3M melanoma) was 30.9 µM. The TGI (LOX IMVI melanoma) was 41.2 µM, the TGI (MDA-MB-435) was 11.7 µM and the TGI (HCT-15 colon) was over 88.4 µM. For the same molecule, the TGI (COLO 205 colon) was 33 µM, the TGI (UO-31 renal) was 10 µM and the TGI (SK-MEL-28 melanoma) was 4.6 µM. It also gave a TGI (SR leukemia) of 31.9 µM, a TGI (CCRF-CEM leukemia) of 24.6 µM and a TGI (UACC-257 melanoma) of 7.18 µM. It also gave a TGI (HT29 colon) of 32.2 µM, a TGI (SK-OV-3 ovarian) of over 100 µM and a TGI (IGROV1 ovarian) of over 62.8 µM. The TGI (DU-145 prostate) was over 100 µM, the TGI (SF-268 CNS) was over 93.5 µM and the TGI (OVCAR-8 ovarian) was over 100 µM. For the same molecule, the TGI (OVCAR-4 ovarian) was over 100 µM, the TGI (SN12C renal) was over 100 µM and the TGI (EKVX NSCLC) was over 100 µM. The TGI (MDA-N) was 15.8 µM, the TGI (HOP-62 NSCLC) was 98.2 µM and the TGI (MDA-MB-231 breast) was 37.3 µM. It also gave a TGI (HCT-116 colon) of over 54.2 µM, a TGI (OVCAR-3 ovarian) of over 100 µM and a TGI (HOP-92 NSCLC) of over 28.3 µM. It also gave a TGI (NCI-H522 lung) of 37.1 µM, a TGI (A498 renal) of 28.2 µM and a TGI (NCI/ADR-RES ovarian) of over 100 µM. For the same molecule, the TGI (SF-539 CNS) was 45.1 µM, the TGI (MCF7 breast) was 43.6 µM and the TGI (M14 melanoma) was 15.7 µM. For the same molecule, the TGI (SNB-19 CNS) was over 100 µM, the TGI (CAKI-1 renal) was over 93.5 µM and the TGI (HCC-2998 colon) was 11.8 µM. It also gave a TGI (KM12 colon) of over 100 µM, a TGI (HL-60(TB) leukemia) of over 100 µM and a TGI (TK-10 renal) of over 82.7 µM. It also gave a TGI (T-47D breast) of over 80.6 µM, a TGI (PC-3 prostate) of over 100 µM and a TGI (OVCAR-5 ovarian) of over 86.3 µM. For the same molecule, the TGI (UACC-62 melanoma) was 3.67 µM, the TGI (SW-620 colon) was over 100 µM and the TGI (RPMI-8226 leukemia) was 17.5 µM. The TGI (BT-549 breast) was over 100 µM, the TGI (K-562 leukemia) was 15 µM and the TGI (ACHN renal) was over 100 µM. For the same molecule, the TGI (U251 CNS) was 47 µM, the TGI (MOLT-4 leukemia) was 37.1 µM and the TGI (SK-MEL-2 melanoma) was 26.4 µM. For the same molecule, the TGI (NCI-H226 lung) was 55.6 µM and the TGI (RXF 393 renal) was 67.9 µM.

NC(=O)c1ccc(NCC2=CC(=O)C=CC2=O)cc1 showed a TGI (786-0 renal) of 38.5 µM, a TGI (SNB-75 CNS) of 36.2 µM and a TGI (A549 NSCLC) of over 100 µM. The TGI (SF-295 CNS) was over 100 µM, the TGI (NCI-H23 lung) was 51.7 µM and the TGI (SK-MEL-5 melanoma) was 30.2 µM. It also gave a TGI (NCI-H460 lung) of over 100 µM, a TGI (HS 578T breast) of 75.2 µM and a TGI (MALME-3M melanoma) of 36.6 µM. For the same molecule, the TGI (LOX IMVI melanoma) was 32.5 µM, the TGI (MDA-MB-435) was 32.1 µM and the TGI (HCT-15 colon) was 38.3 µM. It also gave a TGI (COLO 205 colon) of 36.2 µM, a TGI (UO-31 renal) of 31.8 µM and a TGI (SK-MEL-28 melanoma) of 36.9 µM. The TGI (SR leukemia) was 56.4 µM, the TGI (CCRF-CEM leukemia) was 50.8 µM and the TGI (UACC-257 melanoma) was 43.1 µM. It also gave a TGI (HT29 colon) of 47.7 µM, a TGI (SK-OV-3 ovarian) of over 100 µM and a TGI (IGROV1 ovarian) of 44.7 µM. The TGI (DU-145 prostate) was over 100 µM, the TGI (SF-268 CNS) was 50.9 µM and the TGI (OVCAR-8 ovarian) was 50.7 µM. For the same molecule, the TGI (OVCAR-4 ovarian) was 42.4 µM, the TGI (SN12C renal) was 41.3 µM and the TGI (EKVX NSCLC) was 34.3 µM. It also gave a TGI (MDA-N) of 31.8 µM, a TGI (HOP-62 NSCLC) of over 100 µM and a TGI (MDA-MB-231 breast) of 37.5 µM. For the same molecule, the TGI (HCT-116 colon) was 36.1 µM, the TGI (OVCAR-3 ovarian) was 31 µM and the TGI (HOP-92 NSCLC) was 40.7 µM. It also gave a TGI (NCI-H522 lung) of 47.5 µM, a TGI (A498 renal) of over 100 µM and a TGI (NCI/ADR-RES ovarian) of 71.4 µM. It also gave a TGI (SF-539 CNS) of 32.9 µM, a TGI (MCF7 breast) of 59.1 µM and a TGI (M14 melanoma) of 31.3 µM. The TGI (SNB-19 CNS) was over 100 µM, the TGI (CAKI-1 renal) was 34.2 µM and the TGI (HCC-2998 colon) was over 100 µM. It also gave a TGI (KM12 colon) of over 100 µM, a TGI (HL-60(TB) leukemia) of 30.3 µM and a TGI (TK-10 renal) of 32.7 µM. For the same molecule, the TGI (T-47D breast) was 68.9 µM, the TGI (PC-3 prostate) was 32.7 µM and the TGI (OVCAR-5 ovarian) was 52.9 µM. For the same molecule, the TGI (UACC-62 melanoma) was 35.6 µM, the TGI (SW-620 colon) was 44 µM and the TGI (RPMI-8226 leukemia) was 54.6 µM. For the same molecule, the TGI (BT-549 breast) was 36.2 µM, the TGI (K-562 leukemia) was 49.1 µM and the TGI (ACHN renal) was 31.6 µM. For the same molecule, the TGI (U251 CNS) was 45.1 µM, the TGI (MOLT-4 leukemia) was 67.9 µM and the TGI (SK-MEL-2 melanoma) was 39.8 µM. The TGI (NCI-H226 lung) was over 100 µM and the TGI (RXF 393 renal) was 41 µM.

Molecule CCCCC(=O)Nc1ccc2cc(C(=O)OC)c(Cl)nc2n1 has a TGI (786-0 renal) of over 100 µM, a TGI (SNB-75 CNS) of over 100 µM and a TGI (A549 NSCLC) of over 100 µM. It also gave a TGI (SF-295 CNS) of over 96.7 µM, a TGI (NCI-H23 lung) of over 100 µM and a TGI (SK-MEL-5 melanoma) of over 100 µM. The TGI (NCI-H460 lung) was over 100 µM, the TGI (HS 578T breast) was 46.9 µM and the TGI (MALME-3M melanoma) was over 100 µM. It also gave a TGI (LOX IMVI melanoma) of over 100 µM, a TGI (MDA-MB-435) of over 100 µM and a TGI (HCT-15 colon) of over 100 µM. The TGI (COLO 205 colon) was over 45.3 µM, the TGI (UO-31 renal) was 57.7 µM and the TGI (SK-MEL-28 melanoma) was over 100 µM. It also gave a TGI (SR leukemia) of over 100 µM, a TGI (CCRF-CEM leukemia) of over 100 µM and a TGI (UACC-257 melanoma) of over 100 µM. For the same molecule, the TGI (HT29 colon) was over 100 µM, the TGI (SK-OV-3 ovarian) was over 100 µM and the TGI (IGROV1 ovarian) was over 100 µM. It also gave a TGI (DU-145 prostate) of 10.1 µM, a TGI (SF-268 CNS) of over 100 µM and a TGI (OVCAR-8 ovarian) of over 100 µM. The TGI (OVCAR-4 ovarian) was over 100 µM, the TGI (SN12C renal) was over 100 µM and the TGI (EKVX NSCLC) was over 100 µM. For the same molecule, the TGI (MDA-N) was over 100 µM, the TGI (HOP-62 NSCLC) was 20.6 µM and the TGI (MDA-MB-231 breast) was over 100 µM. It also gave a TGI (HCT-116 colon) of over 100 µM, a TGI (OVCAR-3 ovarian) of 17.6 µM and a TGI (HOP-92 NSCLC) of over 100 µM. For the same molecule, the TGI (NCI-H522 lung) was over 100 µM, the TGI (A498 renal) was over 100 µM and the TGI (NCI/ADR-RES ovarian) was over 100 µM. The TGI (SF-539 CNS) was over 100 µM, the TGI (MCF7 breast) was over 100 µM and the TGI (M14 melanoma) was over 100 µM. The TGI (SNB-19 CNS) was 38 µM, the TGI (CAKI-1 renal) was over 100 µM and the TGI (HCC-2998 colon) was 52.7 µM. It also gave a TGI (KM12 colon) of 10.1 µM, a TGI (HL-60(TB) leukemia) of 6.81 µM and a TGI (TK-10 renal) of over 100 µM. The TGI (T-47D breast) was over 72.5 µM, the TGI (PC-3 prostate) was over 74.3 µM and the TGI (OVCAR-5 ovarian) was over 100 µM. It also gave a TGI (UACC-62 melanoma) of over 100 µM, a TGI (SW-620 colon) of over 100 µM and a TGI (RPMI-8226 leukemia) of over 100 µM. The TGI (BT-549 breast) was over 100 µM, the TGI (K-562 leukemia) was over 100 µM and the TGI (ACHN renal) was over 100 µM. For the same molecule, the TGI (U251 CNS) was over 78 µM, the TGI (MOLT-4 leukemia) was over 100 µM and the TGI (SK-MEL-2 melanoma) was over 100 µM. The TGI (NCI-H226 lung) was over 100 µM and the TGI (RXF 393 renal) was over 100 µM.
